Test in all cases: Test D pre-/postemergence herbicide test
Experiment [1] relates to chickweed. It is filed as in vivo, Stellaria media. The note with it: for Plant response rating: Chickweed, scale 0 to 100; for Plant response rating, Chickweed: scale 0 to 100 (0 no effect, 100 complete control). An excerpt:
(§1) Seeds of plant species selected from bluegrass (annual bluegrass, Poa annua), blackgrass (Alopecurus myosuroides), canarygrass (littleseed canarygrass, Phalaris minor), chickweed (common chickweed, Stellaria media), galium (catchweed bedstraw, Galium aparine), bromegrass, downy (downy bromegrass, Bromus tectorum), field poppy (Papaver rhoeas), field violet (Viola arvensis), foxtail, green (green foxtail, Setaria viridis), deadnettle (henbit deadnettle, Lamium amplexicaule), ryegrass, Italian (Italian ryegrass, Lolium multiflorum), kochia (Kochia scoparia), lambsquarters (Chenopodium album), oilseed rape (Brassica napus), pigweed (Amaranthus retroflexus), chamomile (scentless chamomile, Matricaria inodora), Russian thistle (Salsola kali), speedwell (bird's-eye speedwell, Veronica persica), barley, spring (spring barley, Hordeum vulgare), wheat, spring (spring wheat, Triticum aestivum), buckwheat, wild (wild buckwheat, Polygonum convolvulus), mustard, wild (wild mustard, Sinapis arvensis), oat, wild (wild oat, Avena fatua), radish, wild (wild radish, Raphanus raphanistrum), […]), barley, winter (winter barley, Hordeum vulgare), and wheat, winter (winter wheat, Triticum aestivum) were planted into a silt loam soil and treated preemergence with test chemicals formulated in a non-phytotoxic solvent mixture which included a surfactant. At the same time, these species were planted in pots containing Redi-Earth® planting medium (Scotts Company, 14111 Scottslawn Road, Marysville, Ohio 43041) comprising spaghnum peat moss, vermiculite, wetting agent and starter nutrients and treated with postemergence applications of the test chemicals formulated in the same manner. Plants ranged in height from 2 to 18 cm (1- to 4-leaf stage). Treated plants and controls were maintained in a controlled growth environment for 7 to 21 days after which time all species were compared to controls and visually evaluated. Plant response ratings, summarized in Table D, are based on a scale of 0 to 100 where 0 is no effect and 100 is complete control. A dash (-) response means no test result.

Experiment [2] concerns field violet. The format is in vivo, Viola arvensis. To be noted: for Plant response rating: Field Violet, scale 0 to 100; for Plant response rating, Field Violet: scale 0 to 100 (0 no effect, 100 complete control).
Source text: as §1

Experiment [3] concerns buckwheat, wild. The format is in vivo, Polygonum convolvulus. To be noted: for Plant response rating: Buckwheat, Wild, scale 0 to 100; for Plant response rating, Buckwheat, Wild: scale 0 to 100 (0 no effect, 100 complete control).
Source text: as §1

In experiment [4] the test system is oilseed rape. The format is in vivo, Brassica napus. The note with it: for Plant response rating: Postemergence, Oilseed Rape, scale 0 to 100; for Plant response rating, Oilseed Rape: Preemergence, scale 0 to 100 (0 no effect, 100 complete control).
Source text: as §1

Regarding `O=C1NCC(c2ccc(F)c(F)c2)C1C(=O)Nc1cccc(F)c1` (racemic) [Compound 12], the Plant response rating in experiment [1] (Postemergence, 16 g ai/ha) is 0; in experiment [1] (Postemergence, 31 g ai/ha), 0; in experiment [1] (Postemergence, 62 g ai/ha), 0; in experiment [1] (Postemergence, 125 g ai/ha) it was 20; in experiment [1] (Postemergence, 250 g ai/ha), 30; in experiment [1] (Preemergence, 125 g ai/ha), 0. The Plant response rating in experiment [1] (Preemergence, 250 g ai/ha) was found to be 0; in experiment [2] (Postemergence, 16 g ai/ha), 0; in experiment [2] (Postemergence, 31 g ai/ha) it was 0; in experiment [2] (Postemergence, 62 g ai/ha), 30; in experiment [2] (Postemergence, 125 g ai/ha) it was 35; in experiment [2] (Postemergence, 250 g ai/ha), 40. The Plant response rating is on record as 0 in experiment [2] (Preemergence, 125 g ai/ha); 0 in experiment [2] (Preemergence, 250 g ai/ha); 0 in experiment [3] (Postemergence, 16 g ai/ha); 0 in experiment [3] (Postemergence, 31 g ai/ha); 10 in experiment [3] (Postemergence, 62 g ai/ha); 10 in experiment [3] (Postemergence, 125 g ai/ha). The Plant response rating came out at 10 in experiment [3] (Postemergence, 250 g ai/ha); 0 in experiment [3] (Preemergence, 125 g ai/ha); 100 in experiment [3] (Preemergence, 250 g ai/ha); 10 in experiment [4] (16 g ai/ha); 10 in experiment [4] (31 g ai/ha); 10 in experiment [4] (62 g ai/ha). Besides, the Plant response rating is 20 in experiment [4] (125 g ai/ha) and 25 in experiment [4] (250 g ai/ha). Also, the “Plant response rating, Chickweed” value in experiment [1] (Preemergence, 62 g ai/ha) stood at 0. Also, the “Plant response rating, Field Violet” value is recorded as 0 in experiment [2] (Preemergence, 31 g ai/ha); 0 in experiment [2] (Preemergence, 62 g ai/ha); 0 in experiment [2] (Preemergence, 16 g ai/ha). Moreover, the “Plant response rating, Buckwheat, Wild” value is listed as 0 in experiment [3] (Preemergence, 31 g ai/ha); 0 in experiment [3] (Preemergence, 62 g ai/ha); 0 in experiment [3] (Preemergence, 16 g ai/ha). The “Plant response rating, Oilseed Rape” value is reported as 0 in experiment [4] (31 g ai/ha); 10 in experiment [4] (62 g ai/ha); 10 in experiment [4] (125 g ai/ha); 20 in experiment [4] (250 g ai/ha); 0 in experiment [4] (16 g ai/ha).

As to `O=C1NCC(c2cc(F)c(F)c(F)c2)C1C(=O)Nc1ccccc1C(F)(F)F` (racemic) [Compound 33], the Plant response rating came out at 0 in experiment [1] (Postemergence, 16 g ai/ha); 0 in experiment [1] (Postemergence, 31 g ai/ha); 0 in experiment [1] (Postemergence, 62 g ai/ha); 10 in experiment [1] (Postemergence, 125 g ai/ha); 10 in experiment [1] (Postemergence, 250 g ai/ha); 0 in experiment [2] (Postemergence, 16 g ai/ha). Also, the Plant response rating in experiment [2] (Postemergence, 31 g ai/ha) worked out at 0; in experiment [2] (Postemergence, 62 g ai/ha), 0; in experiment [2] (Postemergence, 125 g ai/ha) it was 0; in experiment [2] (Postemergence, 250 g ai/ha), 0; in experiment [3] (Postemergence, 16 g ai/ha), 0; in experiment [3] (Postemergence, 31 g ai/ha) it was 0. For the same compound, the Plant response rating in experiment [3] (Postemergence, 62 g ai/ha) is given as 0; in experiment [3] (Postemergence, 125 g ai/ha) it was 0; in experiment [3] (Postemergence, 250 g ai/ha), 10; in experiment [4] (16 g ai/ha) it was 0; in experiment [4] (31 g ai/ha), 0; in experiment [4] (62 g ai/ha), 10. For the same compound, the Plant response rating is recorded as 20 in experiment [4] (125 g ai/ha) and 30 in experiment [4] (250 g ai/ha).

As to `O=C1NCC(c2cc(F)c(F)c(F)c2)C1C(=O)Nc1ccccc1F` (racemic) [Compound 34], the Plant response rating turned out to be 0 in experiment [1] (Postemergence, 16 g ai/ha); 0 in experiment [1] (Postemergence, 31 g ai/ha); 0 in experiment [1] (Postemergence, 62 g ai/ha); 10 in experiment [1] (Postemergence, 125 g ai/ha); 20 in experiment [1] (Postemergence, 250 g ai/ha); 0 in experiment [2] (Postemergence, 16 g ai/ha). Moreover, the Plant response rating in experiment [2] (Postemergence, 31 g ai/ha) stood at 0; in experiment [2] (Postemergence, 62 g ai/ha), 0; in experiment [2] (Postemergence, 125 g ai/ha), 0; in experiment [2] (Postemergence, 250 g ai/ha) it was 20; in experiment [3] (Postemergence, 16 g ai/ha), 0; in experiment [3] (Postemergence, 31 g ai/ha) it was 0. The Plant response rating in experiment [3] (Postemergence, 62 g ai/ha) was determined as 0; in experiment [3] (Postemergence, 125 g ai/ha) it was 0; in experiment [3] (Postemergence, 250 g ai/ha), 0; in experiment [4] (16 g ai/ha), 0; in experiment [4] (31 g ai/ha) it was 0; in experiment [4] (62 g ai/ha) it was 0. The Plant response rating in experiment [4] (125 g ai/ha) is on record as 0; in experiment [4] (250 g ai/ha), 20.

As to `O=C1NCC(c2cccc(C(F)(F)F)c2)C1C(=O)Nc1ccc(F)cc1F` (racemic) [Compound 207], the “Plant response rating, Chickweed” value in experiment [1] (Preemergence, 31 g ai/ha) was determined as 60; in experiment [1] (Preemergence, 62 g ai/ha), 60; in experiment [1] (Preemergence, 125 g ai/ha), 70. Also, the Plant response rating worked out at 100 in experiment [1] (Preemergence, 250 g ai/ha); 35 in experiment [2] (Preemergence, 250 g ai/ha); 35 in experiment [3] (Preemergence, 250 g ai/ha). In addition, the “Plant response rating, Field Violet” value turned out to be 10 in experiment [2] (Preemergence, 31 g ai/ha); 15 in experiment [2] (Preemergence, 62 g ai/ha); 35 in experiment [2] (Preemergence, 125 g ai/ha). The “Plant response rating, Buckwheat, Wild” value in experiment [3] (Preemergence, 31 g ai/ha) is on record as 0; in experiment [3] (Preemergence, 62 g ai/ha) it was 15; in experiment [3] (Preemergence, 125 g ai/ha), 25. In addition, the “Plant response rating, Oilseed Rape” value in experiment [4] (31 g ai/ha), in experiment [4] (62 g ai/ha), in experiment [4] (125 g ai/ha) and in experiment [4] (250 g ai/ha) was 0 throughout.

With `O=C1NCC(c2cccc(C(F)(F)F)c2)C1C(=O)Nc1cccc(F)c1F` (centres unmarked) [Compound 241], the “Plant response rating, Chickweed” value in experiment [1] (Preemergence, 31 g ai/ha) was determined as 90; in experiment [1] (Preemergence, 62 g ai/ha) it was 80; in experiment [1] (Preemergence, 125 g ai/ha), 95. The Plant response rating in experiment [1] (Preemergence, 250 g ai/ha) is reported as 100; in experiment [2] (Preemergence, 250 g ai/ha), 30; in experiment [3] (Preemergence, 250 g ai/ha) it was 80. Also, the “Plant response rating, Field Violet” value in experiment [2] (Preemergence, 31 g ai/ha) is recorded as 15; in experiment [2] (Preemergence, 62 g ai/ha), 15; in experiment [2] (Preemergence, 125 g ai/ha) it was 20. Moreover, the “Plant response rating, Buckwheat, Wild” value amounted to 15 in experiment [3] (Preemergence, 31 g ai/ha); 15 in experiment [3] (Preemergence, 62 g ai/ha); 20 in experiment [3] (Preemergence, 125 g ai/ha). For the same compound, the “Plant response rating, Oilseed Rape” value is reported as 0 in experiment [4] (31 g ai/ha), 0 in experiment [4] (62 g ai/ha), 5 in experiment [4] (125 g ai/ha) and 10 in experiment [4] (250 g ai/ha).

These data come from patent US10294202B2, “Pyrrolidinones as herbicides” (FMC Corporation, priority 2013, dated 2019).
